Each structure is given as a SMILES string. Values after ≈ are worked out from the molar mass of the structure shown.

We go through 27 compounds from ChEMBL document CHEMBL3301361, “Experimental in vitro DMPK and physicochemical data on a set of publicly disclosed compounds”.

Series [1] is described as follows: in vitro. The note with it: human, plasma.
The nature of series [2]: in vitro. The note with it: human.
Series [3] can be described thus: physchem. The note with it: octan-1-ol/water.
Series [4] in a line: physchem. The settings on record: pH 7.4 buffer.

What is called fraction unbound is the share of the substance not bound to proteins or other matrix. A higher fraction unbound goes with weak binding. In general, microsomal CLint refers to the rate of metabolic loss divided by the concentration. A lower microsomal CLint goes with greater metabolic stability. `COc1ccccc1S(=O)(=O)NC(=O)N1CCC(N2CCC(Oc3ccc(Cl)c(Cl)c3)CC2)CC1` gave a fraction unbound at 5 h in the series “in vitro [1]” (PPB) of 0.0409. Further, the microsomal CLint in “in vitro [2]” (liver microsomes) is under 3 µL/min/mg.
As to `Cc1ccc2c(c1)c(Sc1cccc(Cl)c1)c(C)n2CC(=O)O`, in the series “in vitro [1]” (PPB), the free fraction (fraction unbound) at 5 h is 0.0036. This compound registered a microsomal CLint in the series “in vitro [2]” (liver microsomes) of 12 µL/min/mg.
In general, logD refers to the decadic logarithm of the distribution of all forms, ionised or not, between an organic phase and buffer at a given pH. A low value points to a more hydrophilic compound. Broadly, the solubility (thermodynamic) is the concentration in solution at equilibrium with solid. In the series “physchem [3]” (pH 7.4), `OC[C@H]1C[C@@H](n2nnc3c(N[C@@H]4C[C@H]4c4ccccc4)nc(SCCC(F)(F)F)nc32)[C@H](O)[C@@H]1O` gave a logD of 4.06. For the same compound, the microsomal CLint in “in vitro [2]” (microsomes) is under 3 µL/min/mg. In addition, the thermodynamic solubility in the series “physchem [4]” came to 0.3 µM (≈ 0.153 µg/mL).
As for `Cc1cc(Nc2cncc(N[C@@H](C)c3ccc(F)cn3)n2)[nH]n1`, the fraction unbound at 5 h in “in vitro [1]” (PPB) was 0.22. Moreover, the microsomal CLint in “in vitro [2]” (liver microsomes) amounted to 34.7 µL/min/mg.
In “physchem [3]” (pH 7.4, LogD7.4), `CCN(C(=O)Cc1ccc(S(C)(=O)=O)cc1)C1CCN(CCC(c2ccccc2)c2ccc(NC(=O)C(C)(C)C)cc2)CC1` (configuration not stated) had a logD of 2.98. Moreover, the microsomal CLint in “in vitro [2]” (liver microsomes) is under 3 µL/min/mg. The same compound gave a thermodynamic solubility in “physchem [4]” of 100 µM (≈ 61.8 µg/mL).
Consider `COc1ccnc(CCc2nc3c(C)ccnc3[nH]2)c1`, for which, in the series “physchem [3]” (pH 7.4, LogD7.4), the logD came to 2.1. Moreover, the fraction unbound at 5 h in “in vitro [1]” (PPB) is 0.197. Further, the microsomal CLint in the series “in vitro [2]” (microsomes) is under 3 µL/min/mg.
`Cc1ccc(F)c(Nc2ccnc(Nc3ccc(S(N)(=O)=O)cc3)n2)c1` displayed a logD in “physchem [3]” (pH 7.4, LogD7.4) of 3.1. The same compound came in with an intrinsic metabolic clearance (microsomal CLint) in “in vitro [2]” (liver microsomes) of 18 µL/min/mg. In the series “physchem [4]”, this compound gave a thermodynamic solubility of 4.4 µM (≈ 1.64 µg/mL).
Take `CC(C)Oc1cc(-n2cnc3ccc(N[C@@H](C)c4ccc(F)cn4)nc32)n[nH]1`: the fraction unbound at 5 h in the series “in vitro [1]” (PPB) was 0.0581. The intrinsic clearance (microsomal CLint) in the series “in vitro [2]” (microsomes) is over 150 µL/min/mg.
Turning to `CC(C)Cn1c(=O)n(C)c(=O)c2cn(Cc3cccc4ccccc34)cc21`, in the series “physchem [3]” (pH 7.4, LogD7.4), the logD was determined as 4.41. The microsomal CLint in “in vitro [2]” (microsomes) was 14 µL/min/mg. In “physchem [4]”, this compound came in with a solubility (thermodynamic) of 1 µM (≈ 0.361 µg/mL).
Take `COc1ccc(OC)c(CNc2[nH]nc3cccc(Oc4ccc(S(C)(=O)=O)cc4)c23)c1`: the logD in “physchem [3]” (pH 7.4, LogD7.4) was found to be 3.71. For the same compound, in the series “in vitro [2]” (liver microsomes), the microsomal CLint came out at 103 µL/min/mg. This compound also yielded a solubility (thermodynamic) in “physchem [4]” of 2.2 µM (≈ 0.998 µg/mL).
The compound `Cc1ccc(NC(=O)c2cncs2)cc1-n1cnc2ccc(N3CCN(C)CC3)cc2c1=O` displayed a logD in “physchem [3]” (pH 7.4, LogD7.4) of 2.11. In “in vitro [2]” (microsomes), this compound came in with a microsomal CLint of under 3 µL/min/mg. In “physchem [4]”, this compound registered a solubility (thermodynamic) of 537 µM (≈ 247 µg/mL).
In “in vitro [1]” (PPB), `CCS(=O)(=O)c1ccc(-c2cc(C(F)(F)F)ccc2O[C@@H](C)C(=O)O)c(C)c1` gave a free fraction (fraction unbound) at 5 h of 0.0418. Moreover, the microsomal CLint in “in vitro [2]” (liver microsomes) was under 3 µL/min/mg.
The compound `O=c1[nH]c(-c2ccc([N+](=O)[O-])cc2)nc2ccccc12` had a logD in the series “physchem [3]” (pH 7.4, LogD7.4) of 2.5. Also, the intrinsic clearance (microsomal CLint) in the series “in vitro [2]” (microsomes) turned out to be 53.7 µL/min/mg. Further, the solubility (thermodynamic) in the series “physchem [4]” is 1.9 µM (≈ 0.508 µg/mL).
Take `O=C(NS(=O)(=O)c1ccccc1Cl)N1CCC(N2CCC(Oc3ccc(Cl)c(Cl)c3)CC2)CC1`: the fraction unbound at 5 h in the series “in vitro [1]” (PPB) is 0.0307. Further, the microsomal CLint in the series “in vitro [2]” (liver microsomes) is under 3 µL/min/mg.
Compound `CCc1ccc(OCC(=O)O)c(-c2ccc(S(C)(=O)=O)cc2)c1` gave a fraction unbound at 5 h in the series “in vitro [1]” (PPB) of 0.0568. This compound displayed a microsomal CLint in the series “in vitro [2]” (microsomes) of under 3 µL/min/mg.
In “in vitro [1]”, `CCCCCOc1ccc(C(=O)NC(C(=O)O)C(C)C)cc1` (configuration not stated) had a fraction unbound at 5 h of 0.0171. In “in vitro [2]” (liver microsomes), this compound returned a microsomal CLint of 5.5 µL/min/mg.
For `CCN(C(=O)NCc1ccc(S(C)(=O)=O)cc1)C1CCN(CCC(c2ccccc2)c2ccccc2)CC1`, the logD in the series “physchem [3]” (pH 7.4, LogD7.4) amounted to 2.86. The compound further displayed a microsomal CLint in the series “in vitro [2]” (liver microsomes) of under 3 µL/min/mg. Further, the solubility (thermodynamic) in “physchem [4]” turned out to be 282 µM (≈ 150 µg/mL).
Compound `CCOC(=O)Nc1cc2c(c(N)n1)N=C(c1ccccc1)CCN2` gave a fraction unbound at 5 h in “in vitro [1]” (PPB) of 0.0544. In the series “in vitro [2]” (microsomes), this compound gave a microsomal CLint of 66.1 µL/min/mg.
Compound `Cc1ccc(S(=O)(=O)N(C)C(=O)N2CCC(N3CCC(Oc4ccc(Cl)c(Cl)c4)CC3)CC2)cc1` showed a fraction unbound at 5 h in “in vitro [1]” (PPB) of 0.0171. This compound also came in with a microsomal CLint in “in vitro [2]” (liver microsomes) of 10 µL/min/mg.
On the same counts, the results for `C[C@H](CO)Nc1nc(SCc2ccco2)nc2nc(N)sc12` are 0.117 and 5 µL/min/mg.
In the series “in vitro [1]”, `C[C@@H]1CN(Cc2ccc(F)cc2)CCN1C(=O)COc1ccc(Cl)cc1NC(N)=O` [BX 471 FREE BASE] had a fraction unbound at 5 h of 0.0205. The intrinsic metabolic clearance (microsomal CLint) in the series “in vitro [2]” (liver microsomes) came out at 21 µL/min/mg.
As for `Cc1ccc2[nH]ccc2c1-c1nc(N2CCOCC2)cc(C2(S(C)(=O)=O)CC2)n1`, the logD in “physchem [3]” (pH 7.4, LogD7.4) amounted to 1.7. In the series “in vitro [2]” (liver microsomes), this compound displayed a microsomal CLint of 5.75 µL/min/mg. This compound also gave a thermodynamic solubility in the series “physchem [4]” of 95.5 µM (≈ 39.4 µg/mL).
Compound `CCCCCCc1nc2c(N)nc3ccccc3c2n1Cc1ccccc1` gave a fraction unbound at 5 h in the series “in vitro [1]” (PPB) of 0.0036. The microsomal CLint in “in vitro [2]” (liver microsomes) is under 3 µL/min/mg.
`Nc1ccc2nc(SCC(=O)NC3CCN(Cc4ccc(Cl)c(Cl)c4)CC3)sc2c1`: the fraction unbound at 5 h in the series “in vitro [1]” (PPB) is 0.262. Besides, the microsomal CLint in “in vitro [2]” (liver microsomes) turned out to be 59 µL/min/mg.
The compound `CCN(C(=O)Cc1ccc(S(C)(=O)=O)cc1)C1CCN(CC[C@@H](c2cc(F)cc(F)c2)N2CCN(S(C)(=O)=O)CC2)CC1` came in with a logD in “physchem [3]” (pH 7.4, LogD7.4) of 1.25. This compound yielded a microsomal CLint in the series “in vitro [2]” (microsomes) of 7.5 µL/min/mg. The same compound registered a solubility (thermodynamic) in the series “physchem [4]” of 1260 µM (≈ 807 µg/mL).
Turning to `Cc1ccc(NC(=O)c2ccccc2F)cc1-n1cnc2ccc(N3CCN(C)CC3)cc2c1=O`, in “physchem [3]” (pH 7.4, LogD7.4), the logD is 2.75. Also, the microsomal CLint in “in vitro [2]” (microsomes) is 3 µL/min/mg. In addition, the solubility (thermodynamic) in “physchem [4]” was 933 µM (≈ 440 µg/mL).
`CCN(C(=O)Cc1ccc(S(C)(=O)=O)cc1)C1CCN(CCC(c2ccccc2)c2ccc(NS(C)(=O)=O)cc2)CC1` (configuration not stated): in the series “physchem [3]” (pH 7.4, LogD7.4), the logD came out at 1.84. Also, in “in vitro [2]” (liver microsomes), the microsomal CLint was under 3 µL/min/mg. Besides, the solubility (thermodynamic) in the series “physchem [4]” stood at 174 µM (≈ 106 µg/mL).
